BigSolDB 2.1

CC1(C)CC(NCCCCCCNC2CC(C)(C)NC(C)(C)C2)CC(C)(C)N1
solubility (mole fraction)
Conditions	in acetone	in acetonitrile	in ethyl acetate	in isobutyl acetate	in isopropyl acetate	in methyl acetate	in n-propyl acetate
273.15 K	0.00859	0.00115	0.0288	0.0497	0.0408	0.0224	0.0341
278.15 K	0.013	0.00183	0.0396	0.0625	0.0549	0.0321	0.046
283.15 K	0.0191	0.00233	0.056	0.0831	0.0736	0.0448	0.063
288.15 K	0.029	0.00371	0.0776	0.108	0.0983	0.0663	0.084
293.15 K	0.0467	0.00537	0.108	0.139	0.128	0.102	0.113
298.15 K	0.0737	0.00821	0.145	0.178	0.165	0.142	0.152
303.15 K	0.117	0.0139	0.193	0.226	0.212	0.185	0.2
